Data published in PMC6349357, “Computational and experimental analysis of bioactive peptide linear motifs in the integrin adhesome” (PLoS ONE, 2019).
Blank lines part the entries; values can stand above or below the substance they belong to.

Experiments:
[1] = system: resting platelets; assay: Platelet aggregation induced by peptide in resting washed platelets (activation); type: cell-based, human (healthy volunteers); conditions: for Activation: platelet aggregation in resting platelets after 6 minutes incubation with peptide, pal-peptides 20 μM, tat-peptides 50 μM, optical density, aggregometer, mean, n>=3, unit assumed; for Aggregation before TRAP activation, donor d: replicate donor d; for Aggregation before TRAP activation, donor f: replicate donor f; for Aggregation before TRAP activation, donor g: replicate donor g
Summary of the method: (§1)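 Washed human platelets (from ACD blood, PGE1-treated) were used at 3x10^5/μl in buffer A pH 7.4 with 1.8 mM CaCl2. Light-transmission aggregometry ran at 37°C with stirring at 1100 rpm. Peptide or buffer was added at 2 min, TRAP 6 min later, and aggregation was recorded for a further 7 min.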

[2] = system: TRAP-activated platelets; assay: Inhibition of TRAP-induced platelet aggregation after pre-incubation with peptide; type: cell-based, human (healthy volunteers); conditions: for Aggregation after TRAP, peptide alone 1x (A 1x / B 1x) / Aggregation after TRAP, peptide alone 2x (A 2x / B 2x): TRAP 2 μM after 6 minutes pre-incubation, mean n = 3; for Aggregation after TRAP, peptide alone 1x (A 1x / B 1x): 4 μM pal-peptides, 10 μM tat-peptides; for Aggregation after TRAP, peptide alone 2x (A 2x / B 2x): double concentration of 4 μM (pal) / 10 μM (tat); for Platelet aggregation remaining after TRAP (low = inhibition): platelet aggregation induced by 4 μM TRAP in platelets pre-incubated with peptide (low value = inhibition), pal-peptides 20 μM, tat-peptides 50 μM, mean, n>=3; for Aggregation after TRAP activation, donor d: replicate donor d; for Aggregation after TRAP activation, donor f: replicate donor f; for Aggregation after TRAP activation, donor g: replicate donor g
Summary of the method: as §1

[3] = type: physicochemical
Method: Peptides were stored in powder form at -80°C. Prior to use, they were left at room temperature for one hour. They were then mixed with a specific volume of deionised water to bring them to a 1mM concentration and were then aliquoted and frozen at -80°C. They were thawed a single time before use and discarded after an experiment. Peptides which were not soluble in deionised water (pal-APTNEFYA, pal-LEEDDEEGE, pal-TNITYRGT and pal-KLLITIHDRKE) were dissolved in a 10% DMSO and 90% deionised water solution (leading to a final concentration of 0.2% DMSO when combined with platelets, see below). These peptides were further diluted during platelet aggregations.

[4] = system: tyrosine phosphorylation in platelets; assay: Phosphotyrosine western blot (4G10) of platelets treated with peptide; type: cell-based, human (healthy volunteers); design: key to Phospho: R: in resting platelets; A: after TRAP activation
Method: A platelet concentration of 3x10^5 /μl was used when performing standard aggregations and a concentration of 1x10^6 /μl was used for sample preparation for western blot analysis. The extent of platelet aggregation was measured by quantifying the optical density of the samples using the Bio-Data PAP-8 aggregometer (platelet aggregation profiler, Horsham, PA, USA). A temperature of 37°C was maintained and samples were stirred using magnets spinning at 1100 rpm. 200 μl of washed platelets was added to each aggregation tube. Different volumes of buffer, peptide and TRAP were added to achieve the desired concentrations. Peptide/buffer was added to each well after two minutes. TRAP, with a final concentration depending on the experiment, was added 6 minutes later and data was collected for an additional 7 minutes.
After the aggregation step, tubes were immediately placed on ice. 27 μl of lysis buffer was then added and the tube was vortexed vigorously. Lysates were left on ice for one hour and vortexed frequently. Proteins were then centrifuged at 14,000 rcf for 10 minutes to remove debris. Samples were then mixed with 2x sample buffer. 50 μl each sample was added to 50 μl of sample buffer. The protein was then denatured by heating to 95°C for 5 minutes. 10 μl of lysate was kept for protein quantification. All samples and lysates were frozen at -80°C.
The Bradford assay was then performed on the lysates to determine protein concentration. Protein concentrations were measured using the Bio-Rad DC Protein Assay. A calibration was created using samples containing a known concentration of bovine serum albumin. These were prepared in advance by sequential dilutions with final concentrations of 1.5mg/ml, 1mg/ml, 0.8mg/ml, 0.6mg/ml, 0.4mg/ml, 0.2mg/ml, 0mg/ml. Samples were then dispensed into a 96 well plate and the Bio-Rad DC reagents were added as described in the protocol. Samples were left to rest for 15 minutes and were then read using 690 0.15 mode on the Wallac plate reader. A standard curve was calculated from the standard samples of known concentration and the y = ax+b equation was used to determine the concentration of the other samples.
Sodium Dodecyl Sulfate Polyacrylamide Gel Electrophoresis (SDS-PAGE) was performed to separate proteins by molecular weight. Polyacrylamide gels were prepared (see Reagents section). Samples or molecular markers were loaded in volumes to give 20 μg of protein. The gels were then run for approximately 80 minutes or until the samples reached the end of the gel. The proteins were then transferred to polyvinylidene difluoride (PVDF) membranes using a Bio-Rad Wet Blot Transfer Cell apparatus. During the transfer the membranes were submerged in 1x transfer buffer (10% 10x transfer buffer, 70% deionised water and 20% methanol). Transfer was performed either overnight at 40 volts at 4°C, or at 100 volts for 1 hour cooled with an ice block. After the transfer the membranes were blocked for 1 hour using 3% bovine albumin serum (BSA) dissolved in TBS-T. Membranes were incubated with 4G10 antibody with a 1:1000 dilution. Unbound primary antibody was washed off with TBS-T three times for 5 minutes each. Membranes were then incubated with anti-mouse IgG secondary antibody (Millipore) with a dilution of 1:30,000. Membranes were submerged in chemiluminescence ECL solution (Thermo Scientific). They were then measured using the western blot developer UVP. One image was taken every 80 seconds for 40 minutes. Numeric data was extracted from selected blots using ImageJ.

[5] = TRAP 4 μM, pal 20 μM, tat 50 μM

- Solubility in deionised water [3]: not soluble
Substance: pal-LEEDDEEGE [pal-ITGA2B_tail, N-terminally palmitylated ITGA2B tail peptide]
- Activation [1]: 2%
- Aggregation before TRAP activation, donor d ([1]; pal 20 μM, tat 50 μM): 2
- Aggregation before TRAP activation, donor f ([1]; pal 20 μM, tat 50 μM): 3
- Aggregation before TRAP activation, donor g ([1]; pal 20 μM, tat 50 μM): 2
- Aggregation after TRAP, peptide alone 1x (A 1x / B 1x) [2]: 65.67
- Aggregation after TRAP, peptide alone 2x (A 2x / B 2x) [2]: 66
- Platelet aggregation remaining after TRAP (low = inhibition) [2]: 52
- Aggregation after TRAP activation, donor d [2, 5]: 74
- Aggregation after TRAP activation, donor f [2, 5]: 76
- Aggregation after TRAP activation, donor g [2, 5]: 4

- Solubility in deionised water [3]: not soluble
Substance: pal-TNITYRGT [pal-ITGB3_tail, N-terminally palmitylated ITGB3 tail peptide]
- Activation [1]: 3%
- Aggregation before TRAP activation, donor d ([1]; pal 20 μM, tat 50 μM): 2
- Aggregation before TRAP activation, donor f ([1]; pal 20 μM, tat 50 μM): 5
- Aggregation before TRAP activation, donor g ([1]; pal 20 μM, tat 50 μM): 3
- Platelet aggregation remaining after TRAP (low = inhibition) [2]: 71
- Aggregation after TRAP activation, donor d [2, 5]: 74
- Aggregation after TRAP activation, donor f [2, 5]: 77
- Aggregation after TRAP activation, donor g [2, 5]: 63

Substance: tat-DPMSSTYIEELGKREVTIPPKYRELLA-(NH2) [tat-CAST_1, tat peptide from calpastatin (CAST)]
- Activation [1]: 3%
- Aggregation before TRAP activation, donor h ([1]; replicate donor h, pal 20 μM, tat 50 μM): 4
- Aggregation before TRAP activation, donor i ([1]; replicate donor i, pal 20 μM, tat 50 μM): 4
- Aggregation before TRAP activation, donor j ([1]; replicate donor j, pal 20 μM, tat 50 μM): 3
- Aggregation after TRAP, peptide alone 1x (A 1x / B 1x) [2]: 70.33
- Aggregation after TRAP, peptide alone 2x (A 2x / B 2x) [2]: 70.67
- Platelet aggregation remaining after TRAP (low = inhibition) [2]: 72
- Aggregation after TRAP activation, donor h ([2]; replicate donor h, TRAP 4 μM, pal 20 μM, tat 50 μM): 77
- Aggregation after TRAP activation, donor i ([2]; replicate donor i, TRAP 4 μM, pal 20 μM, tat 50 μM): 63
- Aggregation after TRAP activation, donor j ([2]; replicate donor j, TRAP 4 μM, pal 20 μM, tat 50 μM): 76
- Phosphotyrosine blot density, peptide + TRAP, Average ([4]; average of 3 replicates, tat peptide 50 µM, TRAP 4 µM): 64.53
- Phosphorylation in resting platelets ([4]; in words): no effect
- Phosphorylation intensity of TRAP activated platelets ([4]; in words, p = 0.03): increased the phosphorylation intensity
- Phospho ([4]; phosphorylation changes associated with peptide treatment, pal 20 μM, tat 50 μM, TRAP 4 μM): A
- relative density (peptide lane to activated control), replicate 1 ([4]; replicate 1): 4.12
- Phosphotyrosine blot density, peptide + TRAP, replicate 1 ([4]; replicate 1, tat peptide 50 µM, TRAP 4 µM): 80
- relative density (peptide lane to activated control), replicate 2 ([4]; replicate 2): 1.42
- Phosphotyrosine blot density, peptide + TRAP, replicate 2 ([4]; replicate 2, tat peptide 50 µM, TRAP 4 µM): 58.7
- relative density (peptide lane to activated control), replicate 3 ([4]; replicate 3): 1.22
- Phosphotyrosine blot density, peptide + TRAP, replicate 3 ([4]; replicate 3, tat peptide 50 µM, TRAP 4 µM): 54.9
